Experimental data as given in ChEMBL document CHEMBL5584201, “Amphiphilic tribasic galactosamines potentiate rifampicin in Gram-negative bacteria at low Mg++/Ca++concentrations” (Bioorg Med Chem Lett, 2024).
Converted amounts (≈) assume the structure as drawn.

Experiments:
Escherichia coli [1] = test: Potentiation of rifampicin-induced antibacterial activity against Escherichia coli ATCC 25922 assessed as fold change in rifampicin MIC at 2 to 8 microg/ml in high concentration of Ca++ and Mg++ containing media by Mueller-Hinton broth based assay; type: functional; conditions: dose 2-8 µg/ml
Escherichia coli [2] = test: Potentiation of rifampicin-induced antibacterial activity against Escherichia coli clinical isolate 94393 assessed as fold change in rifampicin MIC at 1/4 MIC in low salt containing media by Mueller-Hinton broth based assay; type: functional
Escherichia coli [3] = test: Antibacterial activity against Escherichia coli […] in high concentration of Ca++ and Mg++ containing media by Mueller-Hinton broth based assay; type: functional
Acinetobacter baumannii [4] = test: Antibacterial activity against Acinetobacter baumannii ATCC 17978 in high concentration of Ca++ and Mg++ containing media by Mueller-Hinton broth based assay; type: functional
Escherichia coli [5] = test: Potentiation of rifampicin-induced antibacterial activity against Escherichia coli ATCC 25922 assessed as fold change in rifampicin MIC in low salt containing media by Mueller-Hinton broth based assay; type: functional
Acinetobacter baumannii [6] = test: Potentiation of rifampicin-induced antibacterial activity against Acinetobacter baumannii ATCC 17978 assessed as rifampicin MIC at 16 microg/ml in high concentration of Ca++ and Mg++ containing media by Mueller-Hinton broth based assay; type: functional; conditions: dose 16 µg/ml
Acinetobacter baumannii [7] = test: Potentiation of rifampicin-induced antibacterial activity against Acinetobacter baumannii 92247 assessed as rifampicin MIC at 2 to 8 microg/ml in high concentration of Ca++ and Mg++ containing media by Mueller-Hinton broth based assay; type: functional; conditions: dose 2-8 µg/ml
Pseudomonas aeruginosa [8] = test: Antibacterial activity against Pseudomonas aeruginosa PA262 in high concentration of Ca++ and Mg++ containing media by Mueller-Hinton broth based assay; type: functional
Escherichia coli [9] = test: Potentiation of rifampicin-induced antibacterial activity against Escherichia coli clinical isolate 94474 assessed as fold change in rifampicin MIC at 1/4 MIC in low salt containing media by Mueller-Hinton broth based assay; type: functional
Acinetobacter baumannii [10] = test: Potentiation of rifampicin-induced antibacterial activity against Acinetobacter baumannii ATCC 17978 assessed as fold change in rifampicin MIC at 16 microg/ml in high concentration of Ca++ and Mg++ containing media by Mueller-Hinton broth based assay; type: functional; conditions: dose 16 µg/ml
Acinetobacter baumannii [11] = test: Antibacterial activity against Acinetobacter baumannii 92247 in high concentration of Ca++ and Mg++ containing media by Mueller-Hinton broth based assay; type: functional
Acinetobacter baumannii [12] = test: Potentiation of rifampicin-induced antibacterial activity against Acinetobacter baumannii ATCC 17978 assessed as rifampicin MIC in low salt containing media by Mueller-Hinton broth based assay; type: functional
Escherichia coli [13] = test: Potentiation of rifampicin-induced antibacterial activity against Escherichia coli ATCC 25922 assessed as fold change in rifampicin MIC at 16 microg/ml in high concentration of Ca++ and Mg++ containing media by Mueller-Hinton broth based assay; type: functional; conditions: dose 16 µg/ml
Acinetobacter baumannii [14] = test: Potentiation of rifampicin-induced antibacterial activity against multidrug resistant Acinetobacter baumannii AB031 assessed as fold change in rifampicin MIC at 1/4 MIC in low salt containing media by Mueller-Hinton broth based assay; type: functional
Acinetobacter baumannii [15] = test: Potentiation of rifampicin-induced antibacterial activity against Acinetobacter baumannii 92247 assessed as fold change in rifampicin MIC at 16 microg/ml in high concentration of Ca++ and Mg++ containing media by Mueller-Hinton broth based assay; type: functional; conditions: dose 16 µg/ml
Pseudomonas aeruginosa [16] = test: Antibacterial activity against Pseudomonas aeruginosa PAO1 in low salt containing media by Mueller-Hinton broth based assay; type: functional
Acinetobacter baumannii [17] = test: Potentiation of rifampicin-induced antibacterial activity against Acinetobacter baumannii 92247 assessed as fold change in rifampicin MIC at 2 to 8 microg/ml in high concentration of Ca++ and Mg++ containing media by Mueller-Hinton broth based assay; type: functional; conditions: dose 2-8 µg/ml
Escherichia coli [18] = test: Potentiation of rifampicin-induced antibacterial activity against Escherichia coli ATCC 25922 assessed as rifampicin MIC in low salt containing media by Mueller-Hinton broth based assay; type: functional
Escherichia coli [19] = test: Potentiation of rifampicin-induced antibacterial activity against Escherichia coli […] assessed as rifampicin MIC at 2 to 8 microg/ml in high concentration of Ca++ and Mg++ containing media by Mueller-Hinton broth based assay; type: functional; conditions: dose 2-8 µg/ml
Acinetobacter baumannii [20] = test: Potentiation of rifampicin-induced antibacterial activity against Acinetobacter baumannii ATCC 17978 assessed as fold change in rifampicin MIC at 2 to 8 microg/ml in high concentration of Ca++ and Mg++ containing media by Mueller-Hinton broth based assay; type: functional; conditions: dose 2-8 µg/ml
Acinetobacter baumannii [21] = test: Potentiation of rifampicin-induced antibacterial activity against Acinetobacter baumannii ATCC 17978 assessed as fold change in rifampicin MIC in low salt containing media by Mueller-Hinton broth based assay; type: functional
Acinetobacter baumannii [22] = test: Potentiation of rifampicin-induced antibacterial activity against Acinetobacter baumannii 92247 assessed as rifampicin MIC at 16 microg/ml in high concentration of Ca++ and Mg++ containing media by Mueller-Hinton broth based assay; type: functional; conditions: dose 16 µg/ml
Escherichia coli [23] = test: Antibacterial activity against Escherichia coli ATCC 25922 in high concentration of Ca++ and Mg++ containing media by Mueller-Hinton broth based assay; type: functional
[24] = Cytotoxicity against HEK293 cells assessed as cell viability at 9 uM relative to control; type: toxicity, cell-based; conditions: human, read-out: Activity
Acinetobacter baumannii [25] = test: Antibacterial activity against Acinetobacter baumannii ATCC 17978 in low salt containing media by Mueller-Hinton broth based assay; type: functional
Pseudomonas aeruginosa [26] = test: Potentiation of rifampicin-induced antibacterial activity against Pseudomonas aeruginosa PAO1 assessed as fold change in rifampicin MIC in low salt containing media by Mueller-Hinton broth based assay; type: functional
Acinetobacter baumannii [27] = test: Potentiation of rifampicin-induced antibacterial activity against multidrug resistant Acinetobacter baumannii clinical isolate 92247 assessed as fold change in rifampicin MIC at 1/4 MIC in low salt containing media by Mueller-Hinton broth based assay; type: functional
Acinetobacter baumannii [28] = test: Potentiation of rifampicin-induced antibacterial activity against multidrug resistant Acinetobacter baumannii clinical isolate 110193 assessed as fold change in rifampicin MIC at 1/4 MIC in low salt containing media by Mueller-Hinton broth based assay; type: functional
Pseudomonas aeruginosa [29] = test: Potentiation of rifampicin-induced antibacterial activity against Pseudomonas aeruginosa PAO1 assessed as rifampicin MIC at 2 to 8 microg/ml in high concentration of Ca++ and Mg++ containing media by Mueller-Hinton broth based assay; type: functional; conditions: dose 2-8 µg/ml
Escherichia coli [30] = test: Potentiation of rifampicin-induced antibacterial activity against Escherichia coli ATCC 25922 assessed as rifampicin MIC at 2 to 8 microg/ml in high concentration of Ca++ and Mg++ containing media by Mueller-Hinton broth based assay; type: functional; conditions: dose 2-8 µg/ml
Pseudomonas aeruginosa [31] = test: Potentiation of rifampicin-induced antibacterial activity against Pseudomonas aeruginosa PAO1 assessed as fold change in rifampicin MIC at 2 to 8 microg/ml in high concentration of Ca++ and Mg++ containing media by Mueller-Hinton broth based assay; type: functional; conditions: dose 2-8 µg/ml
Pseudomonas aeruginosa [32] = test: Potentiation of rifampicin-induced antibacterial activity against Pseudomonas aeruginosa PAO1 assessed as rifampicin MIC in low salt containing media by Mueller-Hinton broth based assay; type: functional
Pseudomonas aeruginosa [33] = test: Potentiation of rifampicin-induced antibacterial activity against Pseudomonas aeruginosa PA262 assessed as fold change in rifampicin MIC at 2 to 8 microg/ml in high concentration of Ca++ and Mg++ containing media by Mueller-Hinton broth based assay; type: functional; conditions: dose 2-8 µg/ml

Question: Which “fold change (FC)” value (Escherichia coli [1]) does the source give for `CCCCCCCCO[C@@H]1O[C@H](CN)[C@H](N)[C@H](OCc2ccc3ccccc3c2)[C@H]1N` here?
Answer: 1

Question: And the “fold change (FC)” value (Escherichia coli [2])?
Answer: 64

Question: And the MIC (Escherichia coli [3])?
Answer: 64 µg/mL (≈ 149 µM)

Question: What about the MIC (Acinetobacter baumannii [4]) of the same compound?
Answer: ≥ 64 µg/mL

Question: What about the “fold change (FC)” value (Escherichia coli [5]) of the same compound?
Answer: 128

Question: And the MIC (Acinetobacter baumannii [6])?
Answer: 16 µg/mL

Question: What about the MIC (Acinetobacter baumannii [7]) of the same compound?
Answer: 4 µg/mL

Question: What about the MIC (Pseudomonas aeruginosa [8]) of the same compound?
Answer: > 128 µg/mL

Question: And the “fold change (FC)” value (Escherichia coli [9])?
Answer: 64

Question: What about the “fold change (FC)” value (Acinetobacter baumannii [10]) of the same compound?
Answer: 1

Question: What about the MIC (Acinetobacter baumannii [11]) of the same compound?
Answer: ≥ 64 µg/mL

Question: And the MIC (Acinetobacter baumannii [12])?
Answer: 4 µg/mL

Question: What about the “fold change (FC)” value (Escherichia coli [13]) of the same compound?
Answer: 1

Question: What about the “fold change (FC)” value (Acinetobacter baumannii [14]) of the same compound?
Answer: 64

Question: What about the “fold change (FC)” value (Acinetobacter baumannii [15]) of the same compound?
Answer: 32

Question: And the MIC (Pseudomonas aeruginosa [16])?
Answer: 32 µg/mL

Question: And the “fold change (FC)” value (Acinetobacter baumannii [17])?
Answer: 2

Question: What about the MIC (Escherichia coli [18]) of the same compound?
Answer: 2 µg/mL

Question: And the MIC (Escherichia coli [19])?
Answer: 2 µg/mL

Question: And the “fold change (FC)” value (Acinetobacter baumannii [20])?
Answer: 1

Question: And the “fold change (FC)” value (Acinetobacter baumannii [21])?
Answer: 256

Question: What about the MIC (Acinetobacter baumannii [22]) of the same compound?
Answer: 16 µg/mL

Question: And the MIC (Escherichia coli [23])?
Answer: 64 µg/mL (≈ 149 µM)

Question: What about the viability at 9 µM [24] of the same compound?
Answer: 46.4%

Question: What about the MIC (Acinetobacter baumannii [25]) of the same compound?
Answer: 16 µg/mL

Question: And the “fold change (FC)” value (Pseudomonas aeruginosa [26])?
Answer: 2

Question: And the “fold change (FC)” value (Acinetobacter baumannii [27])?
Answer: 64

Question: What about the “fold change (FC)” value (Acinetobacter baumannii [28]) of the same compound?
Answer: 64

Question: And the MIC (Pseudomonas aeruginosa [29])?
Answer: 8 µg/mL

Question: And the MIC (Escherichia coli [30])?
Answer: 2 µg/mL

Question: What about the “fold change (FC)” value (Pseudomonas aeruginosa [31]) of the same compound?
Answer: 1

Question: What about the MIC (Pseudomonas aeruginosa [32]) of the same compound?
Answer: 8 µg/mL

Question: What about the “fold change (FC)” value (Pseudomonas aeruginosa [33]) of the same compound?
Answer: 1
